{"source": "paper PMC12456999", "about": "“Sulfonyl Homoserine Lactones Are Tunable Probes to Inhibit the Quorum Sensing Receptor RhlR and Reduce Swarming Motility in Pseudomonas aeruginosa” (ACS Infectious Diseases, 2025)", "key": {"[1]": {"molecular_target": "T1, RhlR (Pseudomonas aeruginosa, UniProt P54292)", "T1 construct": "expressed in transfected cells; host or cells: E. coli JLD271 (K-12 ΔlacX74 sdiA271::Cam) carrying pJN105-R2 (RhlR expression) and pSC11-rhlI (rhlI'-lacZ reporter)", "T1 sequence (P54292 whole entry)": "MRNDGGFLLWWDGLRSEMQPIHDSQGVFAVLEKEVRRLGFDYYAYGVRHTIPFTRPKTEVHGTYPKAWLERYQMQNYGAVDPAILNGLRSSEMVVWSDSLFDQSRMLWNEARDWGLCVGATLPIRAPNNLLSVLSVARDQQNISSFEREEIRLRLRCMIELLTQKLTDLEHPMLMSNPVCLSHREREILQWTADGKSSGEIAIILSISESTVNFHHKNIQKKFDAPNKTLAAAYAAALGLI", "assay": "E. coli (JLD271) RhlR reporter antagonism assay, in competition with BHL", "type": "cell-based", "settings": "for potency gain: 33 vs 16, 43 vs 24, 86 vs 45; for max. RhlR inhibition (%): E. coli RhlR reporter, BHL at 10 μM set to 0%, media control set to 100%; for IC50: IC50, E. coli JLD271 RhlR reporter, against 10 μM BHL", "protocol": "To start, the sulfonyl HLs were evaluated for their ability to antagonize RhlR using a previously described E. coli strain (JLD271) harboring a RhlR expression plasmid and a rhlI reporter plasmid. This E. coli reporter produces RhlR, and protein activity in the presence of an added small molecule can be measured via the production of β-galactosidase as quantified via luminescence (see Methods). Compounds were screened in competition against RhlR’s native ligand, BHL (at its EC50 value in this strain, 10 μM), over a range of concentrations to generate antagonism dose–response curves (see Supporting Information) and calculate IC50 values (listed in Table ). A small set of compounds was also screened for RhlR agonism in the E. coli reporter; the agonism assay format was identical to the antagonism assay, except no BHL was added.\nRhlR activity in E. coli strain JLD271 (ΔsdiA) was measured via a β-galactosidase reporter (rhI-lacZ) using the Promega Beta-Glo Assay System as previously described. RhlR activity in P. aeruginosa PA14 (ΔrhlIΔlasI) was measured via a GFP reporter (rhlA-gfp). […] See Supporting Information for both reporter protocols.\nSupporting Information — Aguirre-Figueroa et al.\nE. coli and P. aeruginosa RhlR reporter assay protocols.\nE. coli RhlR reporter assay. RhlR activity in E. coli strain JLD271 (ΔsdiA) was measured via a β-galactosidase reporter using the Promega Beta-Glo® Assay System as previously described.10 A schematic of the reporter plasmids and assay protocol is shown in Scheme S1. Briefly, a single colony of E. coli JLD271 harboring the RhlR expression plasmid pJN105-R and the rhlI-lacZ transcriptional fusion reporter pSC11-R (Table S1) was grown in LB medium with 100 μg/mL ampicillin and 10 μg/mL gentamicin overnight (~16 h). The culture was diluted 1:10 in fresh LB medium and grown to an OD600 = 0.25 (0.23–0.28) (~0.5 h). Arabinose was added to a final concentration of 4 mg/mL to induce the expression of pJN105-R. Aliquots (2 μL) of compound DMSO stock solution or serial dilution were added to the inner wells (i.e., non-periphery rows) of a 96-well microtiter plate. To six inner wells, DMSO alone (vehicle) was added as a negative control. For agonism assays, BHL was added to six inner wells as a positive control (to achieve 1 mM). For antagonism assays, BHL was added to six inner wells as a positive control and to all of the other sample wells except for the vehicle control wells (to achieve 10 μM ). Subculture (198 μL) was then dispensed into each inner well. To the outer (periphery) wells, 200 μL of water were added to maintain humidity during incubation. Plates were then incubated for 4 h (shaking) at 37 °C.\nScheme S1. Schematic of E. coli reporter plasmids and assay. (A) Representation of plasmids used in the heterologous reporter system. (B) General reporter assay workflow. BioRender used in […]\nAfter the incubation period, the OD600 of each well was measured using a plate reader. Cell dilution plates were prepared by transferring 10 μL from the incubated culture plate wells to a fresh 96-well plate and adding 90 μL of 18 MΩ water to each well. Next, 10 μL aliquots of diluted Beta-Glo® reagent (1:2 with 18 MΩ water) were added to each well of a white 384-well microtiter plate, followed by 10 μL of culture from each well of the dilution plate. The 384-well plate was incubated (without shaking; i.e., static) for 30 min at 30 °C. After incubation, luminescence of each well was measured using a plate reader. To determine levels of RhlR activity, raw luminescence was divided by OD600 to correct for growth variation and then normalized to the negative (0%) and positive (100%) control wells.\nDose-response reporter assay data for compounds in the E. coli RhlR reporter.\nDose-response curves for RhlR antagonism by compounds against 10 μM BHL using the E. coli JLD271 RhlR reporter are provided below. Compound names are indicated on the x-axis of each plot.\nAll assays performed in triplicate as at least three separate biological replicates. […]"}, "[2]": {"test_system": "bacterial growth", "assay": "Effect on bacterial growth (OD600 over time)", "type": "cell-based", "settings": "at >2 mM concentrations", "protocol": "All new compounds were fully characterized for purity and identity (see Supporting Information). […] The remaining compounds had no effect on growth over the concentration range tested. All compounds were tested in bacteriological assays in triplicate and in at least three separate trials using unique cultures. IC50 and EC50 values in reporter assays were calculated using GraphPad Prism software (version 9.0) with a variable slope sigmoidal curve fit."}}}
{"smiles": "O=C1OCC[C@@H]1NS(=O)(=O)c1cc(F)c(F)c(F)c1", "note": "[Compound 86, 3,4,5-F BSHL]", "values": [{"measurement": "potency gain", "setting": "[1]; E. coli RhlR reporter IC50", "result": "≤ 40", "unit": "fold"}, {"measurement": "fold higher potency relative to 3,4-di-Cl BSHL (43)", "setting": "[1]; E. coli RhlR reporter IC50", "result": "over 2 fold"}, {"measurement": "max. RhlR inhibition (%)", "setting": "[1]", "result": 80, "unit": "%"}, {"measurement": "IC50", "setting": "[1]", "result": 24.5, "unit": "µM"}]}
{"smiles": "O=C1OCC[C@@H]1NS(=O)(=O)c1cccc(Cl)c1", "note": "[Compound 28, 3-chloro-BSHL]", "values": [{"measurement": "fold more potent than 26 and 27", "setting": "[1]; E. coli RhlR reporter IC50", "result": 3, "unit": "fold"}, {"measurement": "max. RhlR inhibition (%)", "setting": "[1]", "result": 97, "unit": "%"}, {"measurement": "IC50", "setting": "[1]", "result": 143, "unit": "µM"}]}
{"smiles": "O=C1OCC[C@@H]1NS(=O)(=O)Cc1ccc(Cl)cc1", "note": "[Compound 21, 4-Cl BnSHL]", "values": [{"measurement": "fold more potent in RhlR than 13 or 16", "setting": "[1]; E. coli RhlR reporter IC50", "result": "approximately 3 fold"}, {"measurement": "max. RhlR inhibition (%)", "setting": "[1]", "result": 99, "unit": "%"}, {"measurement": "IC50", "setting": "[1]", "result": 219, "unit": "µM"}]}
{"smiles": "O=C1OCC[C@@H]1NS(=O)(=O)c1ccc(F)c(Cl)c1", "note": "[Compound 64, 3-Cl, 4-F BSHL]", "values": [{"measurement": "fold higher potency relative to 3,4-di-Cl BSHL (43)", "setting": "[1]; E. coli RhlR reporter IC50", "result": 2, "unit": "fold"}, {"measurement": "max. RhlR inhibition (%)", "setting": "[1]", "result": 90, "unit": "%"}, {"measurement": "IC50", "setting": "[1]", "result": 31.3, "unit": "µM"}, {"measurement": "effect on bacterial growth", "setting": "[2]", "result": "modest effect on bacterial growth"}]}
{"smiles": "O=C1OCC[C@@H]1NS(=O)(=O)c1cc(Cl)c(F)c(Cl)c1", "note": "[Compound 87, 3,5-Cl-4F BSHL]", "values": [{"measurement": "fold higher potency relative to 3,4-di-Cl BSHL (43)", "setting": "[1]; E. coli RhlR reporter IC50", "result": "no change in potency"}, {"measurement": "max. RhlR inhibition (%)", "setting": "[1]", "result": 85, "unit": "%"}, {"measurement": "IC50", "setting": "[1]", "result": 68, "unit": "µM"}]}
{"smiles": "O=C1OCC[C@@H]1NS(=O)(=O)c1ccc(F)c([N+](=O)[O-])c1", "note": "[Compound 71, 3-NO2,4-F BSHL]", "values": [{"measurement": "max. RhlR inhibition (%)", "setting": "[1]", "result": 62, "unit": "%"}, {"measurement": "IC50", "setting": "[1]", "result": 257, "unit": "µM"}]}
{"smiles": "O=C1OCC[C@@H]1NS(=O)(=O)c1cccc(Cl)c1Cl", "note": "[Compound 42, 2,3-di-Cl BSHL]", "values": [{"measurement": "fold lower IC50 value than 3-Cl BSHL (28)", "setting": "[1]; E. coli RhlR reporter IC50", "result": "over 2 fold"}, {"measurement": "max. RhlR inhibition (%)", "setting": "[1]", "result": 95, "unit": "%"}, {"measurement": "IC50", "setting": "[1]", "result": 67.8, "unit": "µM"}]}
{"smiles": "O=C1OCC[C@@H]1NS(=O)(=O)c1cc(Cl)ccc1Cl", "note": "[Compound 90, 2,5-di-Cl BSHL]", "values": [{"measurement": "max. RhlR inhibition (%)", "setting": "[1]", "result": 92, "unit": "%"}, {"measurement": "IC50", "setting": "[1]", "result": 1100, "unit": "µM"}]}
{"smiles": "O=C1OCC[C@H]1NS(=O)(=O)c1ccc(Cl)c(Cl)c1", "note": "[Compound 55, 3,4-di-Cl BSHL]", "values": [{"measurement": "max. RhlR inhibition (%)", "setting": "[1]", "result": 99, "unit": "%"}, {"measurement": "IC50", "setting": "[1]", "result": 195, "unit": "µM"}]}
{"smiles": "O=C1OCC[C@@H]1NS(=O)(=O)c1ccccc1F", "note": "[Compound 92, 2-fluoro-BSHL]", "values": [{"measurement": "max. RhlR inhibition (%)", "setting": "[1]", "result": 91, "unit": "%"}, {"measurement": "IC50", "setting": "[1]", "result": 863, "unit": "µM"}]}
{"smiles": "O=C1OCC[C@@H]1NS(=O)(=O)Cc1cccc(Cl)c1", "note": "[Compound 33, 3-Cl BnSHL]", "values": [{"measurement": "potency gain", "setting": "[1]; E. coli RhlR reporter IC50", "result": "≤ 40", "unit": "fold"}, {"measurement": "max. RhlR inhibition (%)", "setting": "[1]", "result": 99, "unit": "%"}, {"measurement": "IC50", "setting": "[1]", "result": 125, "unit": "µM"}, {"measurement": "effect on bacterial growth", "setting": "[2]", "result": "modest effect on bacterial growth"}]}
{"smiles": "O=C1OCC[C@@H]1NS(=O)(=O)Cc1ccc(Cl)c(Cl)c1", "note": "[Compound 44, 3,4-di-Cl BnSHL]", "values": [{"measurement": "max. RhlR inhibition (%)", "setting": "[1]", "result": 82, "unit": "%"}, {"measurement": "IC50", "setting": "[1]", "result": 205, "unit": "µM"}]}
{"smiles": "O=C1OCC[C@@H]1NS(=O)(=O)Cc1ccc(Br)cc1", "note": "[Compound 19, 4-Br BnSHL]", "values": [{"measurement": "fold more potent in RhlR than 13 or 16", "setting": "[1]; E. coli RhlR reporter IC50", "result": "approximately 3 fold"}, {"measurement": "max. RhlR inhibition (%)", "setting": "[1]", "result": 77, "unit": "%"}, {"measurement": "IC50", "setting": "[1]", "result": 348, "unit": "µM"}]}
{"smiles": "O=C1OCC[C@@H]1NS(=O)(=O)c1ccc(Br)cc1", "note": "[Compound 35, 4-bromo BSHL]", "values": [{"measurement": "max. RhlR inhibition (%)", "setting": "[1]", "result": 99, "unit": "%"}, {"measurement": "IC50", "setting": "[1]", "result": 166, "unit": "µM"}, {"measurement": "effect on bacterial growth", "setting": "[2]", "result": "modest effect on bacterial growth"}]}
{"smiles": "O=C1OCC[C@@H]1NS(=O)(=O)c1ccc(Cl)cc1Cl", "note": "[Compound 24, 2,4-di-Cl-BSHL]", "values": [{"measurement": "max. RhlR inhibition (%)", "setting": "[1]", "result": 99, "unit": "%"}, {"measurement": "IC50", "setting": "[1]", "result": 1590, "unit": "µM"}]}
{"smiles": "O=C1OCC[C@@H]1NS(=O)(=O)c1ccc(C(F)(F)F)cc1", "note": "[Compound 37]", "values": [{"measurement": "max. RhlR inhibition (%)", "setting": "[1]", "result": 99, "unit": "%"}, {"measurement": "IC50", "setting": "[1]", "result": 333, "unit": "µM"}]}
{"smiles": "O=C1OCC[C@@H]1NS(=O)(=O)c1ccc(I)cc1", "note": "[Compound 36]", "values": [{"measurement": "max. RhlR inhibition (%)", "setting": "[1]", "result": 99, "unit": "%"}, {"measurement": "IC50", "setting": "[1]", "result": 295, "unit": "µM"}]}
{"smiles": "Cc1ccc(CS(=O)(=O)N[C@H]2CCOC2=O)cc1", "note": "[Compound 13, 4-Me BnSHL]", "values": [{"measurement": "fold less potent than parent 4-Me PHL", "setting": "[1]; E. coli RhlR reporter IC50, comparator printed as 19", "result": "~170", "unit": "fold"}, {"measurement": "max. RhlR inhibition (%)", "setting": "[1]", "result": 90, "unit": "%"}, {"measurement": "IC50", "setting": "[1]", "result": 918, "unit": "µM"}]}
